Columns and labels:
CTP synthase (CTPS) [1] = target: T1, CTP synthase (CTPS) (Drosophila melanogaster, UniProt Q9VUL1); test: activation kinetics (KA = dissociation constant of the E·GTP complex); assay type: biochemical
T1 construct: full-length, C-terminal 6xHis-tag
T1 sequence (Q9VUL1 1-627): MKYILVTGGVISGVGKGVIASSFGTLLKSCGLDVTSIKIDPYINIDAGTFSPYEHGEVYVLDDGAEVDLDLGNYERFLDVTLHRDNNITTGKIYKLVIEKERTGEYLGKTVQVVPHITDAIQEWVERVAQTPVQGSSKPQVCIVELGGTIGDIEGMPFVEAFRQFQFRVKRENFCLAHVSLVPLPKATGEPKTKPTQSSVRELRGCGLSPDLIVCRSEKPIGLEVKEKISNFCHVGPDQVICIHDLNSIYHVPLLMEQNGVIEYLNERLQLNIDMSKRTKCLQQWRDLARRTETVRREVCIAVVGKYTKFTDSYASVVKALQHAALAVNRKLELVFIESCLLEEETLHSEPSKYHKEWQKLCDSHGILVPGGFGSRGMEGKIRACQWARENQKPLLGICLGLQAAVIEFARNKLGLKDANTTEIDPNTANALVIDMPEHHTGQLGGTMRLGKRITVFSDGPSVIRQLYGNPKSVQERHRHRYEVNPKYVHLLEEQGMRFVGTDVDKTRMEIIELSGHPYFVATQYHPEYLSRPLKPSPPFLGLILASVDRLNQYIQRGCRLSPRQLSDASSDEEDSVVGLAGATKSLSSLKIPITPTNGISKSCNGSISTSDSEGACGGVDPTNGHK

CTP synthase (CTPS) [2] = target: T1, CTP synthase (CTPS); test: enzyme kinetics at […] nm, Hill fit (KA […]); assay type: biochemical
CTP synthase (CTPS) [3] = target: T1, CTP synthase (CTPS); test: enzyme kinetics at […] nm, Hill fit (KA […]); assay type: biochemical; remark: listed apart in the source
CTP synthase (CTPS) [4] = target: T1, CTP synthase (CTPS); test: cryo-EM structure ([…] Å); assay type: binding
CTP synthase (CTPS) [5] = target: T1, CTP synthase (CTPS); test: cryo-EM structure ([…] Å), reaction intermediate; assay type: binding
CTP synthase (CTPS) [6] = target: T1, CTP synthase (CTPS); test: cryo-EM structure; activation kinetics (KA = dissociation constant of the enzyme-regulator complex); assay type: biochemical
From the text: cryo-EM structure; activation kinetics (KA = dissociation constant of the enzyme-regulator complex) on CTP synthase (CTPS) | we observed a clear electron density of dGTP

CTP synthase (CTPS) [7] = target: T1, CTP synthase (CTPS); test: enzyme kinetics at […] nm, Hill fit (KA […]); assay type: biochemical; remark: listed apart in the source
CTP synthase (CTPS) [8] = target: T1, CTP synthase (CTPS); test: enzyme activity abolished at […]; filament formation by negative-stain EM; assay type: biochemical
CTP synthase (CTPS) [9] = target: T1, CTP synthase (CTPS); test: enzyme kinetics at […] nm, Hill fit (KA […]); assay type: biochemical; remark: listed apart in the source

Nc1nc2c(ncn2[C@@H]2O[C@H](COP(=O)(O)OP(=O)(O)OP(=O)(O)O)[C@@H](O)[C@H]2O)c(=O)[nH]1 [GTP]
Kd (CTP synthase (CTPS) [1]): 51.2 µM

O=c1ccn([C@@H]2O[C@H](COP(=O)(O)OP(=O)(O)OP(=O)(O)O)[C@@H](O)[C@H]2O)c(=O)[nH]1 [UTP]
Kd (CTP synthase (CTPS) [2]): 50 ± 40 µM

Nc1ncnc2c1ncn2[C@H]1C[C@H](O)[C@@H](COP(=O)(O)OP(=O)(O)OP(=O)(O)O)O1 [dATP]
Kd (CTP synthase (CTPS) [3]): 160 ± 80 µM

[N-]=[N+]=CC(=O)CC[C@H](N)C(=O)O [DON, 6-diazo-L-noreleucine]
cryo-EM structure (2.7 Å) (CTP synthase (CTPS) [4]): The electron density of the covalent inhibitor DON was observed in the binding pocket of the GAT domain

O=c1nc(OP(=O)(O)O)ccn1[C@H]1C[C@H](O)[C@@H](COP(=O)(O)OP(=O)(O)OP(=O)(O)O)O1 [4Pi-dUTP]
cryo-EM structure (2.7 Å), reaction intermediate (CTP synthase (CTPS) [5]): our electron density map shows that dUTP has been catalyzed by CTPS to 4Pi-dUTP and stabilized through various interactions

Nc1nc2c(ncn2[C@H]2C[C@H](O)[C@@H](COP(=O)(O)OP(=O)(O)OP(=O)(O)O)O2)c(=O)[nH]1 [dGTP]
Kd (CTP synthase (CTPS) [6]): 523 ± 312 µM

O=c1ccn([C@H]2C[C@H](O)[C@@H](COP(=O)(O)OP(=O)(O)OP(=O)(O)O)O2)c(=O)[nH]1 [dUTP]
Kd (CTP synthase (CTPS) [7]): 280 ± 70 µM

Nc1ccn([C@H]2C[C@H](O)[C@@H](COP(=O)(O)OP(=O)(O)OP(=O)(O)O)O2)c(=O)n1 [dCTP]
enzyme activity abolished at 1 mM; filament formation by negative-stain EM (CTP synthase (CTPS) [8]): This indicates that both CTP and dCTP have strong inhibition effects on CTPS activity.

Nc1ncnc2c1ncn2[C@H]1C[C@H](O)[C@@H](COP(=O)(O)OP(=O)(O)O)O1 [dADP]
cryo-EM structure (2.7 Å) (CTP synthase (CTPS) [4]): dATP has been converted to dADP by CTPS

Nc1ncnc2c1ncn2[C@@H]1O[C@H](COP(=O)(O)OP(=O)(O)OP(=O)(O)O)[C@@H](O)[C@H]1O [ATP]
Kd (CTP synthase (CTPS) [9]): 60 µM

Source: publication PMC7619001, “Structural Basis of Bifunctional CTP/dCTP Synthase” (Journal of molecular biology, 2024)
